According to patent US20030083385A1, “Use of benzenesulfonyl (thioureas or ure as) for treating of septic shock or gene ralized inflammatory syndrome” (priority 2001, published 2003):
Counter-ions that a name gives are not always drawn.

How the values were obtained:
[1] = test system: anesthetized pigs given lipopolysaccharide (LPS) as a bolus; experiment: Endotoxin (LPS) model in anesthetized pigs, LPS bolus; type: in vivo, pig; conditions: LPS 1 μg/kg bolus, n=5, LPS raised pressure from 30.6±0.7 to 67.2±6.0 mm Hg, compound 5 mg/kg intravenously, p<0.01
From the text: (§1) The suitability of a compound of formula I for treating pathological changes in blood pressure associated with septic shock or occurring in the generalized inflammatory syndrome (SIRS) state can be established, for example, in the pharmacological model in the pig that is described further below (endotoxin model, synonym: LPS model (LPS=lipopolysaccharide)). The effect can also be examined, for example, in rats, mice, cats, guinea pigs, rabbits, dogs or monkeys.
In another experimental approach performed on anesthetized pigs, 1 μg/kg of LPS was administered as a bolus (n=5). This led, within 15-20 min, to a dangerous increase in the systolic pulmonary arterial pressure from 30.6±0.7 mm Hg to 67.2±6.0 mm Hg.

[2] = test system: anesthetized pigs infused continuously with lipopolysaccharide (LPS); experiment: Endotoxin (LPS) model in anesthetized pigs, continuous LPS infusion; type: in vivo, pig
From the text: as §1
Anesthetized pigs were infused continuously with lipopolysaccharide (LPS) (0.15 μg/kg/h; n=7). This led to a decrease in the peripheral resistance. After 3.9 hours, 1-(5-(2-(5-chloro-2-methoxybenzamido)ethyl)-2-(2-methoxyethoxy)phenyl-sulfonyl)-3-methylthiourea sodium salt was administered at a dose of 5-10 mg/kg (intravenously; aqueous solution). […] The peripheral resistance, which under the effect of the endotoxin had fallen to 60.8±4.1% of the starting value that had been present prior to administering the endotoxin, rose to 80.8±5.1% of the starting value that had been present prior to administering the endotoxin (p<0.0001).

SMILES: CNC(=S)NS(=O)(=O)c1cc(CCNC(=O)c2cc(Cl)ccc2OC)ccc1OCCOC [1-(5-(2-(5-chloro-2-methoxybenzamido)ethyl)-2-(2-methoxyethoxy)phenyl-sulfonyl)-3-methylthiourea sodium salt]
- systolic pulmonary arterial pressure after administration [1]: 46.6±4.0 mm Hg
- rise of peripheral mean arterial blood pressure ([2]; LPS 0.15 μg/kg/h continuous infusion, n=7, compound 5-10 mg/kg intravenously (aqueous solution) after 3.9 hours, p<0.001): 19.6±3.2 mm Hg
- peripheral resistance after administration ([2]; LPS 0.15 μg/kg/h continuous infusion, n=7, compound 5-10 mg/kg intravenously after 3.9 hours, had fallen to 60.8±4.1% under endotoxin, p<0.0001): 80.8±5.1 % of the starting value
- effect when administered as an infusion ([2]; LPS model, infusion, total dose 5-10 mg/kg, seen already after a dose of 1-2.5 mg/kg had been infused): marked improvement
